Legend:
endothelium = assay: Endothelium-dependent vascular relaxation in normal animals and animals with vitamin D2-induced vascular aging (background statement); conditions: normal animals and animals with vascular aging produced by high doses of vitamin D2
Description: This effect is observed both in normal animals and in those in which vascular aging has been produced experimentally by means of the administration of high doses of vitamin D2. This activity of calcium dobesilate, of ethamsylate and of persilate may be reflected in man by effects which are therapeutically useful. […] Rosen, “The Pharmacology of Sexual Function and Dysfunction”, edited by J. Bancroft, Elsevier Sc., 1995, cages 277-287). The normalization of the endothelial function obtained with calcium dobesilate, ethamsylate and persilate can represent an entirely novel therapeutic approach to the problem of impotence (I. Saenz de Tejada et al., N. Engl. J. Med., 1989, 320, 1025-1030), both in patients with vascular disorders with various causes (diabetes, arteriosclerosis, and the like) and in patients where only a functional disorder can be detected.

[1] = tested on: aortas isolated from male rabbits; assay: Effect on the basal tension in aorta arteries with and without endothelium (basal tension 2 grams); type: cell-based, rabbit; conditions: concentrations between 10^−8M and 10^−4
Procedure: (§1) The studies were carried out by using the aortas isolated from male rabbits according to the techniques described by A. Quintana et al. (Europ. J. Pharmacol., 1978, 53, 113-116) and by the group from the University of Edinburgh (Pharmacological Experiments on Isolated Preparations, Edinburgh, Livingstone, 1970). The aortas isolated without the endothelium are prepared according to the technique described by R. Furchgott et al. (J. Cardiol. Pharmacol., 1984, 6, p. 336-p. 343).
2) Effect on the basal tension in the aorta arteries with and without endothelium (basal tension=2 grams).
Calcium dobesilate at concentrations between 10^−8M and 10^−4 relaxes, in a dose-dependent way, the aortas subjected to a basal tension of 2 grams. The maximum relaxation was 44% for the arteries with endothelium and 48% for the arteries without endothelium.

[2] = tested on: aortas isolated from male rabbits; assay: Relaxation of the contraction of isolated aorta maintained with 10^−6 M noradrenalin (in vitro); type: cell-based, rabbit; conditions: aorta contraction maintained with 10^−6 M noradrenalin; concentrations between 10^−4M and 10^−11M
Procedure: as §1
1) Effect on the contraction of the aorta maintained with 10^−6 M noradrenalin.
Calcium dobesilate relaxes the contraction of noradrenalin in a way dependent on the concentration (between 10^−4M and 10^−11M). The maximum relaxation was 70%.

[3] = tested on: aortas originating from the treated rabbits; assay: Protective effect on the endothelium: relaxation of noradrenalin-contracted aortas from rabbits with vitamin D2 overdose; type: in vivo, rabbit; conditions: 10^−6M noradrenalin, calcium dobesilate between 10^−11M and 10^−5M on the artery
Procedure: The protective effect on the endothelium with calcium dobesilate was studied in the rabbit.
To do this, the arterial endothelium in rabbits is damaged by a daily treatment with an overdose of vitamin D2 and three groups of animals are used in the study:
II—Hypervitaminosis D2+50 mg/kg/day calcium dobesilate.
The studies are carried out with arteries originating from the treated rabbits by measuring the effect on the contraction of the aorta maintained with 10^−6M noradrenalin.
Calcium dobesilate (between 10^−11M and 10^−5M) relaxes in a dose-dependent way the contraction due to noradrenalin. The least relaxation corresponds to the hypervitaminosis D2 group (group I), whereas the maximum relaxation is obtained with the aortas of the group treated with calcium dobesilate (group II).
The maximum relaxation obtained for each group was as follows: […]

[4] = tested on: aortas isolated from male rabbits; assay: Effect on the noradrenalin concentration/effect curve in aorta with and without endothelium; type: cell-based, rabbit; conditions: concentration of 10^−6M
Procedure: as §1
3) Effect on the noradrenalin concentration/effect curve.
In arteries with the intact endothelium, calcium dobesilate at a concentration of 10^−6M inhibits a 44% the contraction obtained with 10 ^−4M noradrenalin.

Compound | effects on the endothelium (endothelium) | maximum relaxation of basal tension ([1]; arteries with endothelium) [%] | maximum relaxation of basal tension ([1]; arteries without endothelium) [%] | maximum relaxation of the contraction of noradrenalin [2] [%] | maximum relaxation of the contraction due to noradrenalin ([3]; aortas of Group I (hypervitaminosis D2)) [%] | maximum relaxation of the contraction due to noradrenalin ([3]; aortas of Group II (hypervitaminosis D2 + 50 mg/kg/day calcium dobesilate)) [%] | maximum relaxation of the contraction due to noradrenalin ([3]; aortas of Group O (control rabbits)) [%] | inhibition of the contraction obtained with 10^−4M noradrenalin ([4]; arteries with the intact endothelium) [%] | effect on the noradrenalin concentration/effect curve ([4]; arteries without endothelium)
CCNCC.O=S(=O)(O)c1cc(O)ccc1O [ethamsylate, Diethylamine 2,5-dihydroxybenzenesulfonate] | facilitating endothelium-dependent vascular relaxation |  |  |  |  |  |  |  | 
CCNCC.CCNCC.O=S(=O)(O)c1cc(O)c(S(=O)(=O)O)cc1O [persilate, Bis(diethylamine) 2,5-dihydroxybenzene-1,4-disulfonate] | facilitating endothelium-dependent vascular relaxation |  |  |  |  |  |  |  | 
Calcium 2,5-dihydroxybenzenesulfonate [calcium dobesilate] | facilitating endothelium-dependent vascular relaxation | 44 | 48 | 70 | 52 | 100 | 69 | 44 | no modification of the curve
